Experimental data taken from patent US11214567B2, “Small molecule inhibitors of MYC and uses thereof” (The Regents of the University of Michigan, priority 2017, dated 2022).

Columns and labels:
OVCAR8 = assay: MTT assay (cytotoxicity), OVCAR8; type: cell-based; details: Homo sapiens, OVCAR-8, 72 h, drug concentration causing a 50% decrease in cell population
Experimental: (§1) The evaluation of cytotoxicity was based on the reduction of MTT dye by viable cells to give purple formazan products, which can be measured spectrophotometrically at 540 nm. One hundred eighty microliters of cancer cells were seeded into 96-well plates at 3,500-4,000 cells/well and incubated at 37° C. overnight before the indicated treatments. After 72 h, 20 μl of MTT solution (3 mg/ml) was added and incubated again for 3 h. After removal of media and solubilization of formazan crystals in 150 μL of DMSO, the absorbance was measured at 570 nm. Percentage of cell growth inhibition was expressed as 1-[(A−B)/(C−B)]×100% (A, B and C were the absorbance values from experimental, blank and control cells, respectively).
(§2) KJA derivatives were tested by the MTT assay against five human cancer cell lines including ovarian cancer cell lines (OVCAR-8, NCI/ADR-RES and SKOV3) and pancreatic cancer cell lines (MIA PaCa-2 and Pac-1). […] It is important to note that the NCI/ADR-RES cell line shares a large number of karyotypic abnormalities with OVCAR-8 but expresses high levels of MDR1 (multidrug resistance protein 1)/P-glycoprotein (see, e.g., Xu, S.; et al., Proceedings of the National Academy of Sciences 2012, 109, 16348-16353), resulting in resistance to multiple anticancer drugs in clinical use, including paclitaxel and doxorubicin.

NCI/ADR-RES = assay: MTT assay (cytotoxicity), NCI/ADR-RES; type: cell-based, human; details: Homo sapiens, NCI/ADR-RES; MTT, 72 h; drug concentration causing a 50% decrease in cell population
Experimental: as §1, §2

Panc1 = assay: MTT assay (cytotoxicity), Panc1; type: cell-based; details: Homo sapiens, PANC-1, 72 h, drug concentration causing a 50% decrease in cell population
Experimental: as §1, §2

MIA PaCa-2 = assay: MTT assay (cytotoxicity), MIA PaCa-2; type: cell-based; details: Homo sapiens, 72 h, drug concentration causing a 50% decrease in cell population
Experimental: as §1, §2

SKOV3 = assay: MTT assay (cytotoxicity), SKOV3; type: cell-based; details: Homo sapiens, SK-OV-3, 72 h, drug concentration causing a 50% decrease in cell population
Experimental: as §1, §2

c-MYC [1] = details: osteosarcoma, leukemia and lymphoma cells; cited from earlier work
C-MYC [2] = assay: Western blotting of C-MYC protein levels in cancer cells; type: cell-based, human; details: NCI/ADR-RES cells; 0.5 μM; positive control
Experimental: Cells (5×10^5) were cultured in 6-well plate and treated with KJA03 at designated concentrations. After treatment, cells were lysed with cell lysis buffer on ice at 4° C., sonicated for 3 min, centrifuged (12,000 rpm, 10 min, 4° C.) and then, the supernatant was collected. Protein concentrations of supernatants were evaluated with BCA assay. Proteins were resolved in 10% SDS/PAGE and electrotransferred to Immun-Blot PVDF membrane (Bio-Rad). After blocking with 5% milk in TBST (Tris-buffered saline with 0.1% Tween 20), membranes were probed with primary antibodies (anti-PARP, anti-caspase 3 and anti-GAPDH) 1:1000 dilutions overnight at 4° C. Membranes were then washed with TBST (5 min×3), incubated with Dylight 800-conjugated secondary antibodies 1:7500 dilutions in 5% milk for 1 h at room temperature, and washed with TBST (5 min×3). Fluorescent signal was then scanned by Odyssey Imaging Systems (LI-COR Biosciences).
The effect of KJA03 on the MYC protein levels, including C-MYC and N-MYC, NCI/ADR-RES cells were treated with KJA03 at concentration of 0.1 (half IC50) and 0.2 (IC50) μM for 24 and 48 h. […] It has previously been reported that JQ1 treatment leads to down-regulation of c-MYC protein levels in osteosarcoma, leukemia and lymphoma cells (see, e.g., Mertz, J. A.; et al., Proceedings of the National Academy of Sciences 2011, 108, 16669-16674).
Experiments were conducted to further repeat the experiment and JQ1 was chosen as a positive control. As expected, expression of C-MYC was reduced by KJA03 at 24 h of treatment, correlated with previous experiment (FIG. 3).
Experiments were conducted that further performed a time-course experiment to evaluate C-MYC suppression including 2, 6, 8 24 and 48 h at concentration of 0.2 μM. To define the specificity of MYC suppression in further detail, we treated cells with a range of compound concentrations at 24 h. […] To determine whether KJA03 can suppress C-MYC in different cell lines, we next investigated the level of C-MYC in response to treatment with KJA03 at 0.2 μM using other three different OVCAR8, MIA PaCa-2 and Panc-1 cell lines.

| Compound | IC50 (OVCAR8) [µM] | IC50 (NCI/ADR-RES) [µM] | IC50 (Panc1) [nM] | IC50 (MIA PaCa-2) [nM] | IC50 (SKOV3) [µM] | c-MYC protein levels (c-MYC [1]) | C-MYC expression (C-MYC [2]) |
| --- | --- | --- | --- | --- | --- | --- | --- |
| CC(=O)O[C@H]1C(=O)[C@@]2(C)[C@H]([C@H](OC(=O)c3ccccc3)[C@]3(O)C[C@H](OC(=O)[C@H](O)[C@@H](NC(=O)c4ccccc4)c4ccccc4)C(C)=C1C3(C)C)[C@]1(OC(C)=O)CO[C@@H]1C[C@@H]2O [Paclitaxel, reference compound] | < 0.04 | > 30 | < 40 | < 40 | – | – | – |
| O=c1onc(-c2ccc(Cl)cc2)n1-c1ccccc1-c1nc(-c2ccc(Cl)cc2)no1 [KJA02, 3-(4-Chlorophenyl)-4-(2-(3-(4-chlorophenyl)-1,2,4-oxadiazol-5-yl)phenyl)-1,2,4-oxadiazol-5(4H)-one] | 1.96 ± 0.42 | 4.16 ± 2.61 | 1510 | 1120 | 11.2 | – | – |
| O=c1onc(-c2ccccc2F)n1-c1ccccc1-c1nc(-c2ccccc2F)no1 [KJA17, 3-(2-Fluorophenyl)-4-(2-(3-(2-fluorophenyl)-1,2,4-oxadiazol-5-yl)phenyl)-1,2,4-oxadiazol-5(4H)-one] | 9.12 ± 0.88 | 9.42 ± 1.61 | 3170 | 1430 | 25.6 | – | – |
| O=c1onc(-c2ccc(F)cc2)n1-c1ccccc1-c1nc(-c2ccc(F)cc2)no1 [KJA04, 3-(4-Fluorophenyl)-4-(2-(3-(4-fluorophenyl)-1,2,4-oxadiazol-5-yl)phenyl)-1,2,4-oxadiazol-5(4H)-one] | 7.21 ± 1.55 | 7.63 ± 3.01 | 3220 | 5170 | 20.9 | – | – |
| O=c1onc(-c2ccccc2)n1-c1ccccc1-c1nc(-c2ccccc2)no1 [KJA01, 3-Phenyl-4-(2-(3-phenyl-1,2,4-oxadiazol-5-yl)phenyl)-1,2,4-oxadiazol-5(4H)-one] | 4.65 ± 2.05 | 4.31 ± 0.55 | 2160 | 2490 | 5.82 | – | – |
| Cc1sc2c(c1C)C(c1ccc(Cl)cc1)=N[C@@H](CC(=O)OC(C)(C)C)c1nnc(C)n1-2 [JQ1, reference compound] | – | – | – | – | – | down-regulation | did not inhibit C-MYC expression |
| COc1cc(-c2nc(-c3ccccc3)no2)c(-n2c(-c3ccccc3)noc2=O)cc1OC [KJA06, 4-(4,5-Dimethoxy-2-(3-phenyl-1,2,4-oxadiazol-5-yl)phenyl)-3-phenyl-1,2,4-oxadiazol-5(4H)-one] | > 30 | > 30 | > 30000 | > 30000 | > 30 | – | – |
| COc1cc(-c2nc(-c3ccccc3Cl)no2)c(-n2c(-c3ccccc3Cl)noc2=O)cc1OC [KJA10, 3-(2-Chlorophenyl)-4-(2-(3-(2-chlorophenyl)-1,2,4-oxadiazol-5-yl)-4,5-dimethoxyphenyl)-1,2,4-oxadiazol-5(4H)-one] | 0.71 ± 0.08 | 2 ± 0.76 | 1080 | 710 | 3.23 ± 0.37 | – | – |
| COc1cc(-c2nc(-c3ccc(Cl)cc3)no2)c(-n2c(-c3ccc(Cl)cc3)noc2=O)cc1OC [KJA09, 3-(4-Chlorophenyl)-4-(2-(3-(4-chlorophenyl)-1,2,4-oxadiazol-5-yl)-4,5-dimethoxyphenyl)-1,2,4-oxadiazol-5(4H)-one] | > 30 | > 30 | > 30000 | > 30000 | > 30 | – | – |
